Results: the NIST ThermoML archive (doi:10.1016/j.jct.2017.03.006)
± gives the expanded uncertainty stated by the source.

Test: xn = mol fraction of the nth substance listed
Conditions: Liquid; for mass density: 313.15 K, Vibrating tube method; for viscosity: 323.15 K, 100 kPa, Concentric cylinders viscometry

Cc1ccc(C)c(C)c1 [1,2,4-trimethylbenzene] + CCC(C)O
mass density [kg/m3]
Conditions | 50000 kPa | 60000 kPa | 70000 kPa | 80000 kPa | 90000 kPa | 100000 kPa | 110000 kPa | 120000 kPa | 130000 kPa | 140000 kPa
x2 = 0 | – | 895 ± 0.8 | 899.9 ± 0.8 | 904.6 ± 0.8 | 909 ± 0.8 | 913.3 ± 0.8 | 917.4 ± 0.8 | 921.4 ± 0.8 | 925.2 ± 0.8 | 928.9 ± 0.8
x2 = 0.1 | – | 890.1 ± 0.8 | 895.3 ± 0.8 | 900.1 ± 0.8 | 904.7 ± 0.8 | 909.2 ± 0.8 | 913.5 ± 0.8 | 917.6 ± 0.8 | 921.5 ± 0.8 | 925.4 ± 0.8
x2 = 0.1989 | – | 884.6 ± 0.8 | 889.7 ± 0.8 | 894.7 ± 0.8 | 899.4 ± 0.8 | 903.8 ± 0.8 | 908.1 ± 0.8 | 912.3 ± 0.8 | 916.3 ± 0.8 | 920.2 ± 0.8
x2 = 0.3011 | – | 878.8 ± 0.8 | 884.1 ± 0.8 | 889 ± 0.8 | 893.6 ± 0.8 | 898.1 ± 0.8 | 902.5 ± 0.8 | 906.7 ± 0.8 | 910.7 ± 0.9 | 914.4 ± 0.9
x2 = 0.4002 | – | 873.1 ± 0.8 | 878.3 ± 0.8 | 883.3 ± 0.8 | 888.1 ± 0.8 | 892.5 ± 0.8 | 897 ± 0.9 | 901.1 ± 0.9 | 905.2 ± 0.9 | 908.9 ± 0.9
x2 = 0.5001 | – | 867.1 ± 0.8 | 872.4 ± 0.8 | 877.5 ± 0.8 | 882.2 ± 0.8 | 886.8 ± 0.9 | 891.3 ± 0.9 | 895.5 ± 0.9 | 899.6 ± 0.9 | 903.7 ± 0.9
x2 = 0.5997 | 855 ± 0.8 | 860.6 ± 0.8 | 865.9 ± 0.8 | 871 ± 0.8 | 875.7 ± 0.9 | 880.3 ± 0.9 | 884.8 ± 0.9 | 889.1 ± 0.9 | 893.2 ± 0.9 | 897.3 ± 0.9
x2 = 0.6999 | 848.2 ± 0.8 | 853.8 ± 0.8 | 859.1 ± 0.8 | 864.2 ± 0.8 | 869 ± 0.9 | 873.6 ± 0.9 | 878.1 ± 0.9 | 882.4 ± 0.9 | 886.6 ± 0.9 | 890.2 ± 0.9
x2 = 0.7999 | 841.1 ± 0.8 | 846.7 ± 0.8 | 852.1 ± 0.8 | 857.2 ± 0.9 | 861.9 ± 0.9 | 866.6 ± 0.9 | 871.1 ± 0.9 | 875.3 ± 0.9 | 879.5 ± 0.9 | 883.2 ± 1
x2 = 0.9 | 833.3 ± 0.8 | 839 ± 0.8 | 844.4 ± 0.9 | 849.5 ± 0.9 | 854.3 ± 0.9 | 859 ± 0.9 | 863.5 ± 0.9 | 867.7 ± 1 | 871.9 ± 1 | 875.6 ± 1

Conditions | viscosity [mPa·s]
x2 = 0 | 0.62 ± 0.014
x2 = 0.1001 | 0.62 ± 0.014
x2 = 0.2261 | 0.614 ± 0.013
x2 = 0.3 | 0.616 ± 0.013
x2 = 0.3966 | 0.646 ± 0.014
x2 = 0.5298 | 0.658 ± 0.014
x2 = 0.6001 | 0.71 ± 0.015
